Common to all, as to assay type: cell-based
The subject of assay [1] is colorectal cancer LoVo cells. The assay can be described thus: Cell growth inhibition assay (MTS assay), LoVo. To be noted: Homo sapiens, 48 hours.
In assay [2] the target is T1, A431 cells EGFR-TK phosphorylation stimulated by EGF (Homo sapiens, UniProt P00533).
T1 construct: against A431 cells EGFR-TK; endogenous in cells; host or cells: A431 cells
The assay can be described thus: Inhibition of cellular EGFR-TK phosphorylation stimulated by EGF in A431 cells. Particulars: for EC50: A431 cells EGFR-TK phosphorylation stimulated by EGF (Table 4); for inhibition at 3 µM: A-431, concentration of 3 μM, A431 cells, EGF stimulated, one-time measurement at a single concentration (preliminary selection), NA = No activity, read-out: Inhibition Percent (%). The protocol: Inhibition Experiment of Cellular Epidermal Growth Factor Receptor Tyrosine Kinase
1) A431 cells were cultured in a medium which was prepared by adding 10% FCS into another medium comprising 50% DMEM and 50% F12.
2) A431 cells grown in six-well plates were cultured in a serum-free medium for 24 hours. During the 24 hour period the medium was replenished once after 12 hours.
3) A solution containing a compound to be assessed was added the A431 cells and the cells were cultured for 2 hours, supplemented twice by a medium free of the compound, and then EGF (100 ng/well) was added, and cultured for 5 minutes.
4) A431 cell homogenate was prepared by Laemili buffer which comprised 2% sodium dodecyl sulfonate (SDS), 5% 2-mercaptoethanol, 10% glycerol and 5 mM Tris (pH 6.8).
5) The A431 cell homogenate was heated for 5 minutes at 100° C.
6) Proteins in the A431 cell homogenates were separated by PAGE and transferred onto a nitrocellulose membrane, and an infrared reading was obtained.

In assay [3] the test system is A431 cells. The experiment in a line: Cell growth inhibition assay (MTS assay), A431. To be noted: Homo sapiens, A-431; A431 cells; MTS, 48 hours; read-out: Growth inhibition activity EC50. Background: Tetrazolium assays rely on reduction of a dye to a coloured formazan, in cell work by metabolically active cells.
In assay [4] the target is T2, BT474 cells Her-2 receptor TK phosphorylation stimulated by Her-2 (Homo sapiens, UniProt P04626).
T2 construct: against BT474 cells; endogenous in cells; host or cells: BT474 cells
The experiment in a line: Inhibition of BT474 cells Her-2 receptor TK phosphorylation. The procedure:
Following literature procedured, inhibitory activity of representative compounds against BT474 cells Her-2 receptor TK phosphorylation stimulated by Her-2 was measured, and partial results are listed in Table 6.

Assay [5] has as its system A431 cells. The experiment in a line: A431 cell growth inhibition assay (MTT assay). To be noted: Homo sapiens; for EC50: A-431, 72 hours (Table 11); for inhibition at 3 µM: A-431, concentration of 3 μM, 72 hours, read-out: Inhibition Percent (%). The protocol:
A431 Cell Growth Inhibition Assay (MTT Assay)
A431, an epidermoid carcinoma cell line; The Cell Bank, Committee on Type Culture Collection Chinese Academy of Science, Shanghai.
Mix prepared medium DMEM and F12 in the proportion of 1:1, then add FBS to a final concentration of 10%.
Dissolved the dried compound sample with 100% DMSO to 2 mM. Then diluted the dissolved compound to 20 μM with cell complete growth medium.
Prior to the assay, cultured the A431 to logarithmic phase, and then removed medium from cell monolayers and wash the cells once with sterilized PBS. Aspriated the PBS and added 2 mL trypsin solution to cover the cell growth surface, removed 1 mL trypsin solution after soaking about 1 minute. Transferred the cell-culture plate to CO2 incubator; incubated at 37° C. for 8 minutes to allow cells to dissociate. After the cells detached, added 4 mL complete growth medium containing FBS with pipette to disperse them off and mixed gently to obtain a homogeneous cell suspension. Aspirated some of the cell suspension to a sterilized polypropylene tube, and determined the cell concentration by counting in a hematocytometer chamber under a microscope. Adjusted the cell concentration with growth medium to obtain 2.5×10^4 cells per milliliter.
Added 100 μL adjusted cell suspension to the 96-well cell-culture plate and occasionally mixed the cell suspension during the seeding process. After seeding cells, incubated the plate at 37° C. overnight with 5% CO2 in the CO2 incubator for cell attachment.
After the cell attachment, added 100 μL prepared compound solutions to the corresponding wells (add PBS to the ambient wells of the plate). The final compound concentrations ranged from 10 μM to 1.52 nM. Incubated the plate at 37° C. with 5% CO2 for 72 hours in the CO2 incubator.
After the exposure to the compound, removed the cell culture supernatant. Then added 100 μL 0.5 mg/mL MTT solution which dissolved in the growth medium without FBS. Incubated the plate at 37° C. with 5% CO2 for another 4 hours to allow the MTT reaction to proceed.
After the MTT reaction, discarded the MTT reaction solution. Added 100 μL DMSO to each well, and the plate was agitated on the plate shaker for several minutes to dissolve the formazan. Then, detected the absorbance at 490 nm using microplate reader.

Assay [6] deals with BT474 cells. The assay can be described thus: BT-474 cell growth inhibition assay (SRB assay). To be noted: Homo sapiens, concentration of 3 μM, 72 h, read-out: Inhibition Percent (%). The procedure:
BT-474 Cell Growth Inhibition Assay (SRB Assay)
BT-474 human breast cancer cell lines were kindly provided by Dr. Changnian Liu, Pharmaron Beijing Co., Ltd.
BT-474 cells were cultured in 37° C., 5% CO2, saturated humidity until logarithmic phase. Discarded culture medium, washed cells once by PBS. Added 1 ml Trypsin/EDTA solution, stood at 37° C. for 5 min, allowed the cells to detach. Added culture medium, adjusted the cells density to 1×10^5 cells/ml.
Day 0, added 100 μl/well cells suspension to 96-well cell culture plates. Incubated overnight to let the cells attach completely.
Day 1, compounds (2 mM in DMSO as stock solution) was diluted to 20 μM in EMEM. Then a fourfold serial dilution was made. These diluted compounds were made as 10× reaction solutions, and the concentration of DMSO was kept at 1%.
Added 80 μl culture medium and 20 μl 10× compound reaction solution to the testing wells, or vehicle control to the control wells. Co-incubated cells with compounds for another 72 h.
Day 3, fixed cellular protein by the addition of 100 μl/well of 10% TCA (diluting from 50% TCA) at 4° C. for 1 h. Rinsed TCA using plate washer, and washed five times using distilled water. Removed the residual wash solution with a piece of absorbent paper. Added 100 μl/well 0.4% SRB solution, allowed a 15-30 min staining period. Removed the SRB, and washed the culture plates five times using 1% acetic acid. Removed the residual wash solution with a piece of absorbent paper. Air-dried the culture plates, dissolved the protein-bound dye with 100 μl/well of 10 mM Tris base solution. Shook the plates until the dye was dissolved completely.
For orientation: Sulforhodamine B stains cellular protein and so reports cell mass.

SMILES strings stand for the structures.

T1 sequence (P00533 25-1210): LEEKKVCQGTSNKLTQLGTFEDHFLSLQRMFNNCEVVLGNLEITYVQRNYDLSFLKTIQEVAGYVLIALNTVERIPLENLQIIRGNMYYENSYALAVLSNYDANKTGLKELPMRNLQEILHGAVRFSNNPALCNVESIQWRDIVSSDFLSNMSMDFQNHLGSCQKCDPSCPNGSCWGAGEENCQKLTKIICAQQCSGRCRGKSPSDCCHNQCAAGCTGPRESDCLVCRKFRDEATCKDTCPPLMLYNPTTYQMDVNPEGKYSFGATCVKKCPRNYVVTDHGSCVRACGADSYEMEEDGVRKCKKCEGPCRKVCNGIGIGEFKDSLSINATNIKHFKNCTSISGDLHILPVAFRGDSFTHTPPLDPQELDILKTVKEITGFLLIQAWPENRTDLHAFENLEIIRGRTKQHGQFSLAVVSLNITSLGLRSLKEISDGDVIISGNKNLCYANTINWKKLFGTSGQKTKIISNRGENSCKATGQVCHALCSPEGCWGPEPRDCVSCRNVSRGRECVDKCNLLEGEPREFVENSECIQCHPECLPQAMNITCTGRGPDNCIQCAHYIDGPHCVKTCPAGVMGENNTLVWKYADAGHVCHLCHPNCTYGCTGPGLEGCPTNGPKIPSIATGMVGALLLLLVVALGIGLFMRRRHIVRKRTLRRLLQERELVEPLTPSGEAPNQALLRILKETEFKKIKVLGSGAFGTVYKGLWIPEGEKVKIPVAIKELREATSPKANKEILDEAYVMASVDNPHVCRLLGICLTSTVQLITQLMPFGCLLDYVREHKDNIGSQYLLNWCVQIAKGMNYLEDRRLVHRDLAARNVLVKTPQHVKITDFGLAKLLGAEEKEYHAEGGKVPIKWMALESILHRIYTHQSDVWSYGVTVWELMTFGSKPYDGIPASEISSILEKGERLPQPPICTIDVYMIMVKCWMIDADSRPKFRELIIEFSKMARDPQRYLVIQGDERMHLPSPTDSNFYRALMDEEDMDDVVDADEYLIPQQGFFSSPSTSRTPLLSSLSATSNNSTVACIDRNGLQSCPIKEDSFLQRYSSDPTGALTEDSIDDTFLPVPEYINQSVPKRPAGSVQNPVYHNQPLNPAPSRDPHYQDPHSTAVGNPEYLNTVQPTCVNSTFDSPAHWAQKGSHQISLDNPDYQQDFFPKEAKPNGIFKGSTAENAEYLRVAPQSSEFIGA
T2 sequence (P04626 23-1255): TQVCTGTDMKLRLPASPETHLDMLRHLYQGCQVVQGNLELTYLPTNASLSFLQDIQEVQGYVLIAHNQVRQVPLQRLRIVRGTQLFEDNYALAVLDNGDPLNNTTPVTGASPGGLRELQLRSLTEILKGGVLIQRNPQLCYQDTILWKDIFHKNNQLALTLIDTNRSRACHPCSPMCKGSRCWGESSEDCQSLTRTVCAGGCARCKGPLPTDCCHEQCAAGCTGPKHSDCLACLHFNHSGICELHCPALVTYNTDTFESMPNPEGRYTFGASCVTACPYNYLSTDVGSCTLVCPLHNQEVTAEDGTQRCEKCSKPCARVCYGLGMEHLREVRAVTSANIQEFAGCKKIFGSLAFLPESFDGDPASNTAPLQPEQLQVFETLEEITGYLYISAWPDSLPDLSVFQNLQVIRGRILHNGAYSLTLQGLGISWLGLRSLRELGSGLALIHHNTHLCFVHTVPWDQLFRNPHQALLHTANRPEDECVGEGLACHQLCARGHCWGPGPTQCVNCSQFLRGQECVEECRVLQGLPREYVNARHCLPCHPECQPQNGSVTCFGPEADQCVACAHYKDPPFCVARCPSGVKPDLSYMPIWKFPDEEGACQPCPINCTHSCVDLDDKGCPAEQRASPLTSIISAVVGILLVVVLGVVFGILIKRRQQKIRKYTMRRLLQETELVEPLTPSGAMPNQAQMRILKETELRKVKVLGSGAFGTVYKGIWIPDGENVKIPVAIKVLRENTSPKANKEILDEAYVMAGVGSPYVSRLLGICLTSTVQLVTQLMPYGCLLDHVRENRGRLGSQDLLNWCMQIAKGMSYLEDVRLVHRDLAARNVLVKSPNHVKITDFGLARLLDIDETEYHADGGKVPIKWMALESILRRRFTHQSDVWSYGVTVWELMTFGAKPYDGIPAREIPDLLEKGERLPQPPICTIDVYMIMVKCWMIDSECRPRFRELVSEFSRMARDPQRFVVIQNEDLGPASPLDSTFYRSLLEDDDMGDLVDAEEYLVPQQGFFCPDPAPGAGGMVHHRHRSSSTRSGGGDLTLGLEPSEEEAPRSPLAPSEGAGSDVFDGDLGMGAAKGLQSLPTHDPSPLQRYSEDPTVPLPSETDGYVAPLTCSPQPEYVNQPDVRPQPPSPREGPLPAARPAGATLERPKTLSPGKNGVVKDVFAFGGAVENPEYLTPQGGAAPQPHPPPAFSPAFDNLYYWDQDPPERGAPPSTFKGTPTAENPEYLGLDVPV

As to `COc1cccc2c1C(=O)c1c(O)c3c(c(O)c1C2=O)C[C@@](O)(C(=O)CO)C[C@@H]3O[C@H]1C[C@H](N)[C@H](O)[C@H](C)O1` [Adriamycin, reference compound], in assay [1], the EC50 (as a rule, the midpoint of the concentration-response curve) was 1500 nM.
In the case of `C#Cc1cccc(Nc2ncnc3ccc(NC(=O)C=C4CCNCC4)cc23)c1` [Example 3, N-(4-(3-ethynylphenylamino)quinazolin-6-yl)-2-(piperidin-4-ylidene)acetamide], in assay [2], the EC50 turned out to be 150 nM and the inhibition (commonly how much of the control response was suppressed) at 3 µM amounted to 85%. The EC50 in assay [3] turned out to be 2000 nM.
In the same order, the values of `C#Cc1cccc(Nc2ncnc3ccc(NC(=O)C=C4CCN(C)CC4)cc23)c1` [Example 4, N-(4-(3-ethynylphenylamino)quinazolin-6-yl)-2-(1-methylpiperidin-4-ylidene)acetamide] are 580 nM, 78% and 1800 nM.
Consider `C#Cc1cccc(Nc2ncnc3ccc(NC(=O)C=C4CCN(CCOC)CC4)cc23)c1` [Example 7, N-(4-(3-ethynylphenylamino)quinazolin-6-yl)-2-(1-(2-methoxyethyl)piperidin-4-ylidene)acetamide], for which the concentration for a half-maximal effect (EC50) in assay [2] came out at 400 nM; in assay [3], 5000 nM. Further, the inhibition at 3 µM in assay [2] turned out to be 65%.
Consider `C[C@H](Nc1ncnc2ccc(NC(=O)C=C3CCNCC3)cc12)c1ccccc1` [Example 34, N-(4-((S)-1-phenylethylamino)quinazolin-6-yl)-2-(piperidin-4-ylidene)acetamide], for which the half-maximal effective concentration (EC50) turned out to be 760 nM in assay [2] and 13000 nM in assay [3]. Besides, the inhibition at 3 µM in assay [2] is 68%.
As to `O=C(C=C1CCNCC1)Nc1ccc2ncnc(Nc3cccc(Cl)c3)c2c1` [Example 36, N-(4-(3-chlorophenylamino)quinazolin-6-yl)-2-(piperidin-4-ylidene)acetamide], in assay [2], the midpoint of the response, the EC50, lay at 980 nM and the inhibition at 3 µM was 57%. Moreover, in assay [3], the EC50 turned out to be 30000 nM.
On to `COc1cc2ncnc(Nc3cccc(Br)c3)c2cc1NC(=O)C=C1CCNCC1` [Example 38, N-(4-(3-bromophenylamino)-7-methoxyquinazolin-6-yl)-2-(piperidin-4-ylidene)acetamide], for which the concentration giving a half-maximal response (EC50) in assay [1] is 1600 nM; in assay [3], 14 nM. The inhibition at 3 µM in assay [2] was determined as 94%.
As for `O=C(C=C1CCNCC1)Nc1ccc2ncnc(Nc3ccc4[nH]ccc4c3)c2c1` [Example 41, N-(4-(1H-indol-5-ylamino)quinazolin-6-yl)-2-(piperidin-4-ylidene)acetamide], the inhibition at 3 µM in assay [2] was found to be 71%. Besides, the concentration for a half-maximal effect (EC50) in assay [3] stood at 1500 nM.
Take `C#Cc1cccc(Nc2ncnc3cc(OC)c(NC(=O)C=C4CCNCC4)cc23)c1` [Example 42, N-(4-(3-ethynylphenylamino)-7-methoxyquinazolin-6-yl)-2-(piperidin-4-ylidene)acetamide]: the results for the EC50 in assay [1] and in assay [3] were 3000 nM and 120 nM, respectively.
As to `C#Cc1cccc(Nc2ncnc3cc(OCCCOC)c(NC(=O)C=C4CCNCC4)cc23)c1` [Example 50, N-(4-(3-ethynylphenylamino)-7-(3-methoxypropoxy)quinazolin-6-yl)-2-(piperidin-4-ylidene)acetamide], the inhibition at 3 µM in assay [2] turned out to be 95%. Also, the EC50 in assay [3] came out at 150 nM.
Turning to `C#Cc1cccc(Nc2ncnc3cc(OC)c(NC(=O)C=C4CCN(C)CC4)cc23)c1` [Example 51, N-(4-(3-ethynylphenylamino)-7-methoxyquinazolin-6-yl)-2-(1-methylpiperidin-4-ylidene)acetamide], the EC50 in assay [1] turned out to be 7600 nM; in assay [3] it was 120 nM. Further, in assay [2], the inhibition at 3 µM was 94%.
Take `COc1cc2ncnc(Nc3ccc(OCc4cccc(F)c4)c(Cl)c3)c2cc1NC(=O)C=C1CCNCC1` [Example 105, N-(4-(4-(3-fluorobenzyloxy)-3-chlorophenylamino)-7-methoxyquinazolin-6-yl)-2-(piperidin-4-ylidene)acetamide]: the inhibition at 3 µM in assay [2] came out at 44%. This compound came in with an EC50 in assay [4] of 480 nM.
For the compound `COCCN1CCC(=CC(=O)Nc2cc3c(Nc4ccc(OCc5ccccn5)c(Cl)c4)ncnc3cc2OC)CC1` [Example 118, N-(4-(3-chloro-4-(pyridin-2-ylmethoxy)phenylamino)-7-methoxyquinazolin-6-yl)-2-(1-(2-methoxyethyl)piperidin-4-ylidene)acetamide], the inhibition at 3 µM in assay [2] came to 41%. The EC50 in assay [3] is 1900 nM.
In the same order, the values of `N#Cc1cnc2ccc(N)cc2c1Nc1cccc(Br)c1` [Example 134, 6-amino-4-(3-bromophenylamino)quinoline-3-carbonitrile] are 59% and 900 nM.
Regarding `CCOc1cc2ncc(C#N)c(Nc3ccc(OCc4ccccn4)c(Cl)c3)c2cc1NC(=O)C=C1CCNCC1` [Example 143, N-(4-(3-chloro-4-(pyridin-2-ylmethoxy)phenylamino)-3-cyano-7-ethoxyquinolin-6-yl)-2-(piperidin-4-ylidene)acetamide], the inhibition at 3 µM came out at 96% in assay [2], 70% in assay [5] and 55% in assay [6]. Moreover, the figures for the EC50 in assay [5] and in assay [3] were 1450 nM and 250 nM, respectively.
In the case of `CCOc1cc2ncc(C#N)c(Nc3ccc(F)c(Cl)c3)c2cc1NC(=O)C=C1CCNCC1` [Example 150, N-(4-(3-chloro-4-fluorophenylamino)-3-cyano-7-ethoxyquinolin-6-yl)-2-(piperidin-4-ylidene)acetamide], the inhibition at 3 µM in assay [2] stood at 46%; in assay [5], 95%; in assay [6] it was 56%. Further, the EC50 in assay [4] amounted to 260 nM; in assay [5], 170 nM.
As for `CCOc1cc2ncc(C#N)c(Nc3cccc(Br)c3)c2cc1NC(=O)C=C1CCNCC1` [Example 154, N-(4-(3-bromophenylamino)-3-cyano-7-ethoxyquinolin-6-yl)-2-(piperidin-4-ylidene)acetamide], the values for the EC50 in assay [1] and in assay [3] were 3100 nM and 110 nM, respectively.
For the compound `N#Cc1cnc2ccc(NC(=O)C=C3CCNCC3)cc2c1Nc1ccc(F)c(Cl)c1` [Example 173, N-(4-(3-chloro-4-fluorophenylamino)-3-cyanoquinolin-6-yl)-2-(piperidin-4-ylidene)acetamide], the inhibition at 3 µM in assay [5] came to 87%; in assay [6], 44%.

These data come from patent publication US8765946B2, “Methods of preparing and using quinazoline and quinoline derivatives” (priority 2006, dated 2014).
